In patent US6093723A, “4-substituted beta-carbolines and analogs thereof” (Boehringer Ingelheim Pharmaceuticals, Inc., priority 1997, dated 2000):
Where two headings read alike, the source gives them in different places.

What was measured:
[1] = tested on: Ca^+2 influx in Jurkat cells (clone E6-1); assay: Calcium influx assay (thapsigargin-stimulated, Fluo-3); type: cell-based; conditions: Homo sapiens; Jurkat cells clone E6-1, thapsigargin 100 nM, 10 min preincubation
Description: Jurkat cells (clone E6-1) are pelleted by centrifugation, washed twice, and resuspended in RPMI 1640 containing, […], 1 % fetal calf serum, 3 μM Fluo-3-AM, 13.5 μl/ml Pluronic F 127 (Molecular Probes) and incubated for 1 hour at 37° C. The loaded cells are washed twice in Hanks Balanced Salt Solution containing 10 mM HEPES. The cells are resuspended in HBSS containing 10 mM HEPES, and dispensed into 96-well Dynatech black microtiter plates at 2×10^5 cells/well. The cells are preincubated with compounds for 10 minutes at room temperature. Baseline fluorescence of unstimulated cells is measured using an SLT fluorescent microtiter plate reader with an excitation wavelength of 495 nm and emission wavelength of 538 nm. Thapsigargin is then added to a final concentration of 100 nM. Following a 5 minute incubation, fluorescence of thapsigargin treated cells is measured. Delta fluorescence values are determined by subtracting baseline fluorescence values from thapsigargin induced fluorescence values.

[2] = tested on: IL-2 production in CD3+/CD4+ cells; assay: IL-2 production assay, Protocol A (ionomycin and PMA as stimuli); type: cell-based; conditions: human CD3+/CD4+ cells, ionomycin 1 μg/ml and PMA 10 ng/ml, 16 hr
Description: Protocol A (ionomycin and […] as stimuli)
Human peripheral blood is obtained from healthy donors by venipuncture and the mononuclear cell fraction is prepared by centrifugation on Ficoll Hypaque (Phamacia) density gradients. Contaminating red blood cells are lysed and the CD3+/CD4+ cells are purified using immunoaffinity columns (R&D Systems or CellPro). The cells are resuspended and dispensed in 96 well microtiter plates. Test compounds are added to the cells approximately 15 minutes prior to stimulation with ionomycin (1 μg/ml) and PMA (10 ng/ml). The final volume of the assay is 100 μL. Following a 16 hr incubation at 37° C., the cells are pelleted by centrifugation, and the supernatants are collected and stored at -70° C. until assayed for IL-2 using a commercial ELISA kit (Genzyme).

[3] = tested on: IL-2 production in T lymphocytes (CD3+/CD4+ cells); assay: IL-2 production assay, Protocol B (antiCD3/antiCD28 as stimuli); type: cell-based; conditions: T-lymphocyte; human T lymphocytes, anti-CD3/anti-CD28 and goat anti-mouse coated beads, 16 hour
Description: Protocol B (antiCD3/antiCD28 as stimuli)
Human peripheral blood is obtained from healthy donors by venipuncture and the mononuclear cell fraction is prepared by centrifugation on Ficoll Hypaque (Phamacia) density gradients. Contaminating red blood cells are lysed and the CD3+/CD4+ cells are purified using immunoaffinity columns (R&D Systems or CellPro). The T lymphocytes are plated at 1-1.5×10^5 cells/well in a 96 well microtiter plate, and incubated with serial dilutions of compounds for 20 minutes at 37° C. The T cells are activated by the addition of 0.6 ng/ml anti-CD3 (Immunotech), 500 ng/ml anti-CD28 (Biodesign) and 2×10^5 goat anti-mouse coated beads (Dynal). The final volume of the assay is 200 μl. Following a 16 hour incubation at 37° C., the cells are pelleted, and the supernatants are removed and collected and stored at -70° C. until assayed for interleukin-2 using a commercial ELISA kit (R&D Systems).

[4] = tested on: allogeneic cell transplant response (T-cell-mediated immune response, popliteal lymph node); assay: Allogeneic cell transplant response in mice (popliteal lymph node weight); type: in vivo, mice (DBA donors, C57B1/6 recipients); conditions: 1 mg/kg, dosed one hour prior to cell injection and daily thereafter, ~four days
From the text: Allogeneic Cell Transplant Response in Mice
The ability of cells to recognize other cells from self or from another genetically different individual (non-self) is an important property in maintaining the integrity of tissue and organ structure. The allogeneic cell transplant response is therefore an important model for studies of transplant rejection. This T-cell-mediated immune response can be induced in adult mice by the injection of lymphocytes from an histoincompatible mouse strain. This response is characterized by T cell proliferation which is limited to the popliteal lymph node that receives drainage from the footpad area. No in vitro system exists that can exactly duplicate completely this in vivo response. The assay is commonly used to evaluate new and novel potential immunosuppressive molecules.
Experiments are conducted using male or female mice (20-26 grams). Any histoincompatible mouse strains suffice for donor and recipient populations. Typically DBA mice are used as donors and C57B1/6 mice are used as recipients. A minimum of 1 week stabilization and conditioning period is usually required before use of the mice. Each study utilizes approximately 36 recipient mice divided into groups of 6.
Donor mice are sacrificed by CO2 asphyxiation and spleens are removed and a cell suspension is prepared. The cell suspension (1.0×10^7/metatarsal in 0.05 ml) is injected I.D. into the dorsal metatarsal skin of recipient mice. Four days later, the animals are sacrificed by CO2 asphyxiation and the popliteal nodes are removed and weighed. Groups of mice receiving putative immunosuppressive agents are dosed subcutaneously,intraperitoneally or orally one hour prior to cell injection and daily thereafter. The tests last approximately four days. The assay involves no footpad swelling and only a moderate increase in the size of the popliteal lymph node. Student's t test is used to determine significant differences between popliteal lymph nodes of groups of untreated mice and those mice treated with putative immunosuppressive agents.

IL-2 promoter = IL-2 promoter assay (luciferase reporter in Jurkat cells); type: cell-based; conditions: Homo sapiens
From the text: All the known regulatory features of IL-2 gene are contained within a ~300 bp sequence immediately upstream of the open reading frame. […] The resulting construct, pIL2P-luc, and a vector containing a neomycin resistance gene, pcDNA/Neo (Invitrogen), are linearized and stably transfected into Jurkat cells (a human T cell line) by electroporation.
For screening compounds, the cells are pelleted by centrifugation, washed once with PBS, resuspended in RPMI (phenol red-free) containing 5% FBS, and dispensed into 96-well, white microtiter plates (Packard) at 50,000 cells/well. The cells are pre-incubated with compounds (1 μg/ml) for 15 min prior to addition of ionomycin (1 μg/ml) and PMA (10 ng/ml) in a final volume of 100 μl. Following a 5 hr incubation at 37° C. in a humidified incubator, 100 μl of Luc-Lite lysis buffer/luciferase assay buffer (Promega) is added and luminescence measured using a Packard TopCount scintillation counter/luminometer.

[5] = Jurkat luciferase reporter cells, ionomycin 1 μg/ml and PMA 10 ng/ml, 5 hr, read-out: IL-2 PROMOTER IC50

Row | SMILES | IC50 [1] | IC50 [2] | IC50 [3] | ALLOGENEIC CELL TRANSPLANT % [4] | IC50 (IL-2 promoter; [5]) | IC50 (IL-2 promoter; Jurkat, read-out: inhibition of luciferase activity, IC50)
1 | Cc1ccc(-c2cncc3[nH]c4ccccc4c23)cc1 [Compound 1, 4-(p-Methylphenyl)-β-carboline] | 0.3 µM | 2 µM | 6.2 µM | 38% | 1.5 µM | –
2 | c1ccc(-c2cncc3[nH]c4ccccc4c23)cc1 [Compound 2, 4-Phenyl-β-carboline] | 2.2 µM | 14 µM | – | – | – | –
3 | CCCc1cncc2[nH]c3ccccc3c12 [Compound 3, 4-Propyl-β-carboline] | 17.2 µM | 38 µM | 21 µM | – | – | –
4 | COc1ccc(-c2cncc3[nH]c4ccc(Cl)cc4c23)cc1 [Compound 6] | 14 µM | 9.2 µM | > 25 µM | – | 3.2 µM | –
5 | COc1ccc(-c2cncc3c2c2ccccc2n3C)cc1 [Compound 8] | 2.2 µM | > 20 µM | 7.4 µM | – | – | –
6 | Cc1cccc(-c2cncc3[nH]c4ccccc4c23)c1 [Compound 9] | 1.1 µM | 5 µM | > 25 µM | – | – | –
7 | COc1ccc(-c2cncc3c2c2ccccc2n3Cc2ccccc2)cc1 [Compound 10] | 4.6 µM | 27 µM | > 25 µM | – | – | –
8 | COc1ccccc1-c1cncc2[nH]c3ccccc3c12 [Compound 11] | 6.4 µM | 3 µM | 20 µM | – | – | –
9 | CCOc1ccc(-c2cncc3[nH]c4ccccc4c23)cc1 [Compound 12] | 1.2 µM | 0.3 µM | 4.5 µM | 49% | – | –
10 | Clc1ccc(-c2cncc3[nH]c4ccccc4c23)cc1 [Compound 13] | 0.5 µM | 0.8 µM | 8.1 µM | – | – | –
11 | c1cncc(-c2cncc3[nH]c4ccccc4c23)c1 [Compound 14] | 29 µM | 36 µM | 22 µM | – | – | –
12 | Cc1ccc(-c2cncc3[nH]c4cccc(C)c4c23)cc1 [Compound 15] | 0.9 µM | – | 9 µM | – | – | –
13 | Cc1ccc(-c2cncc3[nH]c4ccc(C)cc4c23)cc1 [Compound 16] | 4.5 µM | – | > 25 µM | – | – | –
14 | Cc1ccc(-c2cncc3[nH]c4cc(C)ccc4c23)cc1 [Compound 17] | 0.4 µM | – | 4.2 µM | – | – | –
15 | Cc1ccc(-c2cncc3[nH]c4c(C)cccc4c23)cc1 [Compound 18] | 0.7 µM | – | 5.4 µM | – | – | –
16 | CCOC(=O)c1ccc(-c2cncc3[nH]c4ccccc4c23)cc1 [Compound 19] | 3.4 µM | – | 6.3 µM | – | – | –
17 | CC(C)c1ccc(-c2cncc3[nH]c4ccccc4c23)cc1 [Compound 20] | 0.3 µM | – | 1.1 µM | – | – | –
18 | Oc1ccc(-c2cncc3[nH]c4ccccc4c23)cc1 [Compound 21] | 2.9 µM | – | – | – | – | –
19 | COc1ccc2c(c1)[nH]c1cncc(-c3ccc(C)cc3)c12 [Compound 22] | 1.7 µM | – | 5.8 µM | – | – | –
20 | OCc1ccc(-c2cncc3[nH]c4ccccc4c23)cc1 [Compound 23] | 15.2 µM | – | – | – | – | –
21 | CN(C)c1ccc(-c2cncc3[nH]c4ccccc4c23)cc1 [Compound 24] | 1.6 µM | – | 0.17 µM | – | – | –

Row | SMILES | IC50 [1] | IC50 [2] | IC50 [3] | ALLOGENEIC CELL TRANSPLANT % [4] | IC50 (IL-2 promoter; [5]) | IC50 (IL-2 promoter; Jurkat, read-out: inhibition of luciferase activity, IC50)
22 | O=C(c1ccccc1)c1ccc(-c2cncc3[nH]c4ccccc4c23)cc1 [Compound 25] | 7.7 µM | – | – | – | – | –
23 | Cn1c2ccccc2c2c(-c3ccc(C(F)(F)F)cc3)cncc21 [Compound 26] | 2.5 µM | – | > 25 µM | – | – | –
24 | COc1ccc(-c2cncc3[nH]c4ccccc4c23)c(OC)c1 [Compound 27] | 1.3 µM | – | 5.6 µM | – | – | –
25 | COc1cc(OC)cc(-c2cncc3[nH]c4ccccc4c23)c1 [Compound 28] | 0.7 µM | – | 4.8 µM | – | – | –
26 | COc1ccc(-c2cncc3[nH]c4ccccc4c23)cc1OC [Compound 29] | 2.7 µM | – | 1.6 µM | – | – | –
27 | Cc1ccc(-c2cncc3[nH]c4ccccc4c23)c(C)c1 [Compound 30] | 1.7 µM | – | 5.9 µM | – | – | –
28 | COc1cc(-c2cncc3[nH]c4ccccc4c23)cc(OC)c1OC [Compound 31] | 3.3 µM | – | 2.8 µM | – | – | –
29 | Clc1ccc(-c2cncc3[nH]c4ccccc4c23)cc1Cl [Compound 32] | 1.5 µM | – | 8.9 µM | – | – | –
30 | COc1ccc(-c2cncc3[nH]c4ccccc4c23)cc1C [Compound 33] | 1 µM | – | 5.3 µM | – | – | –
31 | Cc1ccc(-c2cncc3[nH]c4cc(CO)ccc4c23)cc1 [Compound 34] | 2.4 µM | – | 7.7 µM | – | – | –
32 | COC(=O)c1ccc2c(c1)[nH]c1cncc(-c3ccc(C)cc3)c12 [Compound 35] | 0.7 µM | – | – | – | – | –
33 | COC(=O)c1cccc2c1[nH]c1cncc(-c3ccc(C)cc3)c12 [Compound 36] | 3.3 µM | – | 17 µM | – | – | –
34 | c1ccc(Cc2cncc3[nH]c4ccccc4c23)cc1 [Compound 37] | 2.2 µM | – | > 25 µM | – | – | –
35 | c1ccc2c(c1)[nH]c1cncc(C3CCCCC3)c12 [Compound 38] | 2.2 µM | – | > 25 µM | – | – | –
36 | Cc1ccc(-c2cncc3[nH]c4ccccc4c23)s1 [Compound 39] | 0.7 µM | – | 9.5 µM | – | – | –
37 | Cc1ccnc(-c2cncc3[nH]c4ccccc4c23)c1 [Compound 40] | 14.4 µM | – | > 25 µM | – | – | –
38 | Cc1cnc(-c2cncc3[nH]c4ccccc4c23)s1 [Compound 41] | 17.7 µM | – | > 25 µM | – | – | –
39 | c1ccc2cc(-c3cncc4[nH]c5ccccc5c34)ccc2c1 [Compound 42] | 1.3 µM | – | 2.5 µM | – | – | –
40 | Cc1noc(-c2cncc3[nH]c4ccccc4c23)n1 [Compound 43] | > 45 µM | – | > 25 µM | – | – | –
41 | CC(C)c1noc(-c2cncc3[nH]c4ccccc4c23)n1 [Compound 44] | 1.3 µM | – | < 10 µM | – | – | –
42 | C=CC[C@@H]1/C=C(\C)C[C@H](C)C[C@H](OC)[C@H]2O[C@@](O)(C(=O)C(=O)N3CCCC[C@H]3C(=O)O[C@H](/C(C)=C/[C@@H]3CC[C@@H](O)[C@H](OC)C3)[C@H](C)[C@@H](O)CC1=O)[C@H](C)C[C@@H]2OC [FK506, reference compound] | – | – | – | – | – | 0.0003 µM
